Test results taken from patent US8415327B2, “Methods of and compositions for reducing cell death” (priority 2009, dated 2013).
Entries after “also recorded” stand apart in the source; their conditions may differ.

Assays:
[1] = Superoxide scavenging (hydroethidine fluorescence, xanthine/xanthine oxidase); type: biochemical
Protocol: Superoxide scavenging: The ability of PB1 and PB2 to scavenge superoxide was quantified essentially as described ([…] et al., Invest. Opthalmol. Vis. Sci. 47:3878 (2006)). Essentially, fluorescence of hydroethidine was measured after exposure to superoxide generated by xanthine/xanthine oxidase, in the presence or absence of PB1, PB2, or polyethylene glycol-conjugated superoxide dismutase used as positive control.

[2] = test system: RGC-5 cells; assay: Rescue of RGC-5 cells from METC-active drugs (menadione, rotenone, antimycin A), calcein/propidium iodide viability assay; settings: for protection/rescue from death induced by menadione, rotenone and antimycin A: RGC-5 cells, 24 hours co-incubation; for rescue of RGC-5 cells at higher concentrations: most likely due to toxicity; for viability (live cells compared to untreated controls): 24 hours
Protocol: Cell Culture: RGC-5 cells were cultured in Dulbecco's modified Eagle's medium (DMEM) (Mediatech, Inc., Manassas, Va.). containing 1 g/L glucose, supplemented with 10% fetal bovine serum, 100 U/mL penicillin, and 100 μg/mL streptomycin (Mediatech, Inc.). Cells were passaged every 48 to 72 hours when cells were approximately 60 to 75% confluent, replated at a 1:20 dilution in a 75 cm^2 flask in 20 ml of cell culture media and incubated at 37° C. in humidified 5% CO2. Experiments were performed in duplicate or triplicate.
Cell Treatment and Assessment of Viability: Cells were plated in 96-well plates at a density of 60 cells/mm^2 in 50 μL of media. Approximately 24 hours after plating, 50 μL of media containing either menadione, rotenone, or antimycin A, either with or without PB1 and PB2, was added to the cells to generate the final concentrations of 10 nM, 1 μM, or 100 μM. Control wells received media containing vehicle alone. Following 24 hours of treatment, media was aspirated from wells using a 25-gauge needle and cells stained with calcein-AM (10 μg/mL) and propidium iodide (1 μg/mL) (both Invitrogen, Carlsbad, Calif.) in PBS for 30 minutes. The staining solution was aspirated using a 25-gauge needle and replaced with PBS. Three randomly chosen fields per well were photographed on an Axiovert 135 microscope under epifluorescence with a Nikon D70s digital SLR camera (Nikon, Melville, N.Y.) at a resolution of 3008×2000 pixels and an exposure time of 1.6 seconds. Live (calcein-positive) and dead (propidium iodide-positive) cells were assessed using Image) software. Pictures were batch analyzed using a macro containing the following actions: subtract background, threshold, erode, erode, watershed, and analyze particles between the sizes of 1000 pixels and infinity. […] Each experiment was analyzed with respect to its own set of controls to account for variation in passage number of the RGC-5 cells and small differences between batches of cryopreserved RGC-5 cells.
Statistics: Viability was assessed as number of live cells/mm^2, and compared to the untreated controls of each experiment. Means were compared using Student's unpaired t-test.
RGC-5 cells plated in 96-well plates were treated for 24 hours with the redox cycling agent menadione, the complex I inhibitor rotenone, or the complex III inhibitor antimycin A, at final concentrations ranging from 100 nM to 31.6 μM (menadione) or 1 μM to 316 μM (rotenone or antimycin A). […] RGC-5 cells were co-incubated with these mitochondrial electron transporter chain (METC)-drugs and the borane-phosphines PB1 or PB2 for 24 hours, followed by assessment of cell viability by calcein/propidium iodide assay. TCEP (100 μM) served as a positive control.

[3] = test system: retinal endothelial cells; assay: Radiation-induced death of retinal endothelial cells, calcein-AM/propidium iodide viability assay; type: cell-based, murine; settings: for rescue: 1 μM at the time of irradiation, 72 hours; for radio-protection: administered before or at the time of irradiation
Protocol: Cell Culture: Murine endothelial cells were isolated from Immortomice, which express a temperature-sensitive Simian virus 40 large T antigen, using sheep anti-rat Dynabeads coated with the rat anti-mouse PECAM-1 monoclonal antibody MEC13.3. […] Irradiation and Viability Assays: The cells were plated onto 1% gelatin coated 96-well plates at a density of 2,000 cells per well. For irradiation, control and treatment groups were removed from the incubator. Treatment groups received single doses of radiation between 1 and 30 Gray using an irradiator containing ^137Cesium (JL Shepherd & Associates) using a rotating platform to ensure uniform delivery. Control groups were left at room temperature during irradiation of the treatment groups. PB1 or PB2 was administered 18 hours before, immediately before, or 18 hours after irradiation. Media was aspirated 48 or 72 hours after irradiation using a 30 gauge needle and the cells were incubated in staining containing calcein-AM and propidium iodide in PBS for 30 minutes at room temperature in the dark. Digital photomicrographs of the wells were taken at a total magnification of 200× on a Zeiss Axiovert inverted microscope under epifluorescence. Calcein-positive (viable) and propidium iodide-positive (dead) cells were counted using NIH ImageJ software. Statistical significance was determined using the Student's t-tests.

[4] = test system: retinal endothelial cells; assay: Protection of retinal endothelial cells from H2O2 oxidative damage; type: cell-based, murine; settings: for most effective concentration against oxidative insults: tested at 1-1000 μM
Protocol: Cell Culture: Murine endothelial cells were cultured as described in Experiment 3. Endothelial cells were treated directly with high levels of H2O2 in the absence or presence of PB1 and PB2 at a concentrations of 1-1000 μM.

[5] = Sulfhydryl reducing activity (DTNB); type: biochemical
Protocol: Sulfhydryl reducing activity: Sulfhydryl reducing activity was measured with 5-5′-dithio-bis(2-nitrobenzoic acid) (DTNB), which undergoes a colorimetric change when its disulfide linkage is reduced. Reaction of various concentrations of dithiothreitol, tris(carboxyethyl)phosphine, PB1, or PB2 with 30 mM DTNB in methanol was carried out in buffer at pH 5, 7, and 9. The sulfhydryl reduction potentials of PB1 and PB2 were assessed both before and after borane deprotection with DABCO.

[6] = test system: RGC-5 cells; assay: Menadione-induced cell death in RGC-5 cells (calcein-AM viable cell count); type: cell-based; settings: for neuroprotection against menadione-induced cell death / effectiveness as neuroprotectant compared with PB3: RGC-5 cells; for effectiveness as neuroprotectant compared with PB3: menadione; for % of the cells protected from menadione-induced cell death: 17.8 μM menadione, 24 hours
Protocol: Cell Culture: Cells of RGC-5 (ATCC Deposit Accession No. PTA-6600), a neuronal cell line, were suspended in growth medium and plated in 96-well plates at a density of 2,000 cells per well. After 24 hours in culture, cells were treated with 17.8 μM menadione (Sigma-Aldrich, St. Louis, Mo.). Menadione creates oxidative stress resulting in cell death. PB3, PB4, or PB6 was added to the wells directly before menadione treatment. After 24 hours of menadione treatment, the cells were stained with calcein-AM and photographed.

Structure (SMILES) | superoxide scavenging as mechanism of protection [1] | protection/rescue from death induced by menadione, rotenone and antimycin A [2] | rescue of RGC-5 cells at higher concentrations [2] | rescue ([3]; 3 Gy) [%] | radio-protection [3] | most effective concentration against oxidative insults ([4]; H2O2) [µM] | disulfide reduction as mechanism of protection [5] | neuroprotection against menadione-induced cell death [6] | effectiveness as neuroprotectant compared with PB3 [6] | % of the cells protected from menadione-induced cell death ([6]; compound 1 μM) [%] | also measured
[BH3-][P+](CCC(=O)OC)(c1ccccc1)c1ccccc1 [PB2, (3-propionic acid methyl ester)diphenylphosphine borane complex] | not superoxide scavenging | significant rescue; also recorded: significant protection | little or no rescue | 46 | effective radio-protectants | 1 | involves disulfide reduction |  |  |  | toxicity to RGC-5 cells [2]: toxic; viable cell counts, % of control ([4]; 1 µM): 9.0±1.6%
[BH3-][P+](CCC(=O)OCCCCCC)(c1ccccc1)c1ccccc1 [PB4, (3-propionic acid hexyl ester)diphenylphosphine borane complex] |  |  |  |  |  |  |  | neuroprotective | less effective neuroprotectants than PB3 | 19.0±5.5 | 
[BH3-][P+](CC(=O)NCC)(c1ccccc1)c1ccccc1 [PB6, (2-Ethyl acetamide)diphenylphosphine borane complex] |  |  |  |  |  |  |  | neuroprotective | less effective neuroprotectants than PB3 |  | % of the cells protected from menadione-induced cell death ([6]; compound 10 pM): 25.6±8.4%
B.CCCCCCOC(=O)CCP(CCC(=O)OCCCCCC)c1ccccc1 [PB3, bis(3-propionic acid hexyl ester)phenylphosphine borane complex] |  |  |  |  |  |  |  | neuroprotective |  | 46.4±16.8 | % of the cells protected from menadione-induced cell death ([6]; compound 10 μM): 38.3±12.2%; % of the cells protected from menadione-induced cell death ([6]; compound 100 μM): 30.9±4.3%
[BH3-][P+](CCC(=O)OC)(CCC(=O)OC)c1ccccc1 [PB1, bis(3-propionic acid methyl ester)phenylphosphine borane complex] | not superoxide scavenging | significant rescue; also recorded: significant protection | little or no rescue | 35 | effective radio-protectants | 1 | involves disulfide reduction |  |  |  | viability (live cells compared to untreated controls) ([2]; antimycin A, compound 100 μM, vs. 34±2% without compound): 74±4%; viability (live cells compared to untreated controls) ([2]; menadione, compound 100 μM, vs. 34±4% without compound): 83±5%; viability (live cells compared to untreated controls) ([2]; rotenone, PB1 concentration not restated (100 μM in preceding sentence), vs. 25±3% without compound): 36±3%; protection against radiation exposures ([3]; 100 nM, 18 hours after irradiation, all radiation exposures tested): significant protection; viable cell counts, % of non-irradiated control ([3]; 1 μM administered at the time of irradiation, 3 Gy, 72 hours after irradiation, 29±6% without compound): 54±6%; radiomitigation: change in viable cell counts ([3]; administered 18 hours after exposure to ionizing radiation up to 30 Gy): significant increases in viable cell counts; protection against radiation exposure ([3]; all PB1 treatment levels, 18 hours after irradiation, 30 Gy, p<0.05): significant protection; viable cell counts, % of control ([4]; H2O2, compound 1 μM, 24 hours, 4.2±1.1% without compound): 10.8±2.3%
